Assay results published in patent publication US9920383B2, “Active substances for increasing the stress defense in plants to abiotic stress, and methods of finding them” (Bayer Intellectual Property GMBH, priority 2005, dated 2018).

Assays:
[1] = system: Zm.485.1.A1_at non-symbiotic hemoglobin (HBT) (ZEAMP GLB1); assay: Gene expression profiling (maize genome array), drought stress; format: in vivo, maize cv. Lorenzo; conditions: vs unstressed solvent-dressed control
Method: (§1) Maize seeds cv. Lorenzo were dressed as described in example 1 with the compound VIII-3 (=4-cyclopropylaminocarbonyl-N-(2-methoxybenzoyl)benzenesulfonamide) or with solvent. The plants were raised for 10 days in a controlled-environment chamber (conditions: see example 1).
(§2) Thereafter, the plants were exposed to the following stress conditions: • (1) Heat stress: 6 h at 45° C. • (2) Drought stress: 7 days without irrigation, 24° C.
(§3) The control plants of the specific experimental group were kept under the standard conditions described in example 1 (temperature, irrigation).
(§4) After the stress treatment, the leaves of the stressed plants and of the unstressed control plants were harvested, shock-frozen in liquid nitrogen and stored at −80° C. until processed. All experiments were carried out in replications of in each case 2 pots.
(§5) The labeled RNA probes for the DNA chip hybridization were prepared as described in the protocols (Expression Analysis. Technical Manual) from Affymetrix (Affymetrix Inc., 3380 Central Expressway, Santa Clara, Calif., USA). First, total RNA was isolated from in each case 500 mg of the harvested leaves. In each case 10 μg of total RNA were used for the cDNA first- and second-strand synthesis. The cDNA was amplified with T7 polymerase and simultaneously labeled with biotin-UTP. In each case 20 μg of this biotinylated […] were employed for the hybridization of the maize genome array from Affymetrix. This DNA microarray contains DNA sequences whose totality represents 13339 genes. Thereafter, the DNA microarrays were washed in the Affymetrix Fluidics Station, stained with streptavidin/phycoerythrin (Molecular Probes, P/N S-866) and scanned with the appropriate Agilent Laser Scanner (Agilent Gene Array Scanner). The fluorescence data obtained were analyzed using Affymetrix's Microarray Suite 5 software. After the quality assurance had been performed, all DNA chip analyses were stored in a database. To determine relevant expression values (induction factors, repression factors), the absolute expression values of the genes from the respective stress experiments were compared with the values of the respective control experiments (i.e. without abiotic stress and solvent-dressing only), based on the scoring function predetermined by the Affymetrix software. The resulting 4 expression values per gene were averaged by calculating the median value. These median values are shown in the results tables as induction factors. Similarity comparisons of expression profiles of various experiments and cluster analyses were carried out using the “genedata expressionist” software from Genedata (Genedata, Maulbeerstr. 46, CH-4016 Basel, Switzerland).
(§6) The induction patterns derived from table 5 and which are shown directly by the resulting expression values show characteristic inductions by the action of the compound 4-cyclopropylaminocarbonyl-N-(2-methoxybenzoyl)benzenesulfonamide (=VIII-3), the effect on the putative N-carbamyl-L-amino acid amidohydrolase [Zm.11840.1.A1_at] and on the putative serine carboxypeptidase [Zm18994.2.A1-at] being most pronounced. • b) Under dried stress conditions, i.e. the tested maize plants (dressed with 2 mg a.i. 4-cyclopropylaminocarbonyl-N-(2-methoxybenzoyl)benzenesulfonamide/g seeds) were exposed to a temperature of 24° C. for 7 hours 7 days after germination.
(§7) • Condition A: drought stress (7 days, 24° C.) • Condition B: Seeds dressed with 4-cyclopropylaminocarbonyl-N-(2-methoxybenzoyl)benzenesulfonamide (VIII-3)/NO drought stress • Condition C: Seeds dressed with 4-cyclopropylaminocarbonyl-N-(2-methoxybenzoyl)benzenesulfonamide (VIII-3)+drought stress (7 days, 24° C.).

[2] = system: Zm.818.2.A1_at expressed protein; assay: as above; format: in vivo, maize cv. Lorenzo; conditions: vs unstressed solvent-dressed control
Method: as §1, §2, §3, §4, §5, §6, §7

[3] = seeds dressed with VIII-3 (2 mg a.i./g seeds), NO drought stress
[4] = seeds dressed with VIII-3 + drought stress (7 days, 24° C.)

COc1ccccc1C(=O)NS(=O)(=O)c1ccc(C(=O)NC2CC2)cc1 [VIII-3, 4-cyclopropylaminocarbonyl-N-(2-methoxybenzoyl)benzenesulfonamide]
induction factor Zm.485.1.A1_at, Condition B [1, 3]: 1.00
induction factor Zm.485.1.A1_at, Condition C [1, 4]: 5.49
induction factor Zm.818.2.A1_at, Condition B [2, 3]: 1.10
induction factor Zm.818.2.A1_at, Condition C [2, 4]: 5.40
